From the NIST ThermoML archive (doi:10.1021/acs.jced.6b00460)
± gives the expanded uncertainty stated by the source.

Settings: 101.33 kPa, Liquid; for speed of sound: Sing-around technique in a fixed-path interferometer; for mass density: Vibrating tube method

## CCCCCC[n+]1ccccc1.[Br-] [1-hexylpyridinium bromide]
308.15 K
  speed of sound: 1592.5 ± 2.7 m/s
  mass density: 1235.72 ± 2.4 kg/m3
318.15 K
  speed of sound: 1557.2 ± 2.7 m/s
  mass density: 1229.23 ± 2.3 kg/m3

## CCCCCCCC[n+]1ccccc1.[Cl-] [N-octylpyridinium chloride]
308.15 K
  speed of sound: 1482.6 ± 2.6 m/s
  mass density: 1128.78 ± 2.2 kg/m3
318.15 K
  speed of sound: 1448.6 ± 2.6 m/s
  mass density: 1123.06 ± 2.2 kg/m3

## CCCCCC[n+]1ccc(C)cc1.[Br-] [1-hexyl-4-methylpyridinium bromide]
308.15 K
  speed of sound: 1589.8 ± 2.7 m/s
  mass density: 1214.46 ± 2.3 kg/m3
318.15 K
  speed of sound: 1558.7 ± 2.7 m/s
  mass density: 1207.88 ± 2.3 kg/m3

## CCCCCC[n+]1ccccc1.[Cl-] [1-hexylpyridinium chloride]
308.15 K
  speed of sound: 1570.7 ± 2.7 m/s
  mass density: 1146.65 ± 2.3 kg/m3
318.15 K
  speed of sound: 1549.2 ± 2.7 m/s
  mass density: 1142.77 ± 2.3 kg/m3

## CCCCCCCC[n+]1ccc(C)cc1.[Cl-] [4-methyl-1-octylpyridinium chloride]
308.15 K
  speed of sound: 1445.5 ± 2.6 m/s
  mass density: 1107.79 ± 2.2 kg/m3
318.15 K
  speed of sound: 1411.7 ± 2.6 m/s
  mass density: 1102.01 ± 2.2 kg/m3

## CCCCCCCC[n+]1ccccc1.[Br-] [1-octylpyridinium bromide]
308.15 K
  speed of sound: 1507.1 ± 2.6 m/s
  mass density: 1168.14 ± 2.3 kg/m3
318.15 K
  speed of sound: 1478.3 ± 2.6 m/s
  mass density: 1161.81 ± 2.3 kg/m3
